# Source: patent US20110105515A1, “TARGETING THE ONCOPROTEIN NUCLEOPHOSMIN” (President and Fellows of Harvard College, priority 2007, published 2011)
# Columns and labels:
# [1] = test system: ACHN; assay: cells; conditions: Homo sapiens, 48 h; for CC50: read-out: LC50
# [2] = test system: SNB-75; conditions: SNB-75 (CNS Cancer), 48 hours, SRB
# [3] = test system: HL-60(TB); conditions: HL-60(TB) (Leukemia), 48 hours, SRB
# [4] = test system: NCI/ADR-RES; assay: cells; conditions: Homo sapiens, 48 h; for CC50: read-out: LC50
# [5] = test system: BT-549; assay: cells; conditions: Homo sapiens, BT-549, 48 h; for CC50: read-out: LC50
# [6] = test system: TK-10; conditions: TK-10 (Renal Cancer), 48 hours, SRB
# [7] = test system: HS578T; assay: cells; conditions: Homo sapiens, Hs-578T, 48 h
# [8] = test system: HCT-15; conditions: HCT-15 (Colon Cancer), 48 hours, SRB
# [9] = test system: BT-549; conditions: BT-549 (Breast Cancer), 48 hours, SRB
# [10] = test system: SR; conditions: SR (Leukemia), 48 hours, SRB
# [11] = test system: UO-31; conditions: UO-31 (Renal Cancer), 48 hours, SRB
# [12] = test system: MOLT-4; assay: cells; conditions: Homo sapiens, MOLT-4, 48 h; for CC50: read-out: LC50
# [13] = test system: SW-620; conditions: SW-620 (Colon Cancer), 48 hours, SRB
# [14] = test system: HT29; conditions: HT29 (Colon Cancer), 48 hours, SRB
# [15] = test system: 786-0; conditions: 786-0 (Renal Cancer), 48 hours, SRB
# [16] = test system: NCI-H522; conditions: NCI-H522 (Non-Small Cell Lung Cancer), 48 hours, SRB
# [17] = test system: OVCAR-3; conditions: OVCAR-3 (Ovarian Cancer), 48 hours, SRB
# [18] = test system: U251; conditions: U251 (CNS Cancer), 48 hours, SRB
# [19] = test system: T-47D; conditions: T-47D (Breast Cancer), 48 hours, SRB
# [20] = test system: SNB-19; conditions: SNB-19 (CNS Cancer), 48 hours, SRB
# [21] = test system: K-562; assay: cells; conditions: Homo sapiens, K562, 48 h; for CC50: read-out: LC50
# [22] = test system: MDA-MB-435; conditions: MDA-MB-435 (Breast Cancer), 48 hours, SRB
# [23] = test system: SK-MEL-28; assay: cells; conditions: Homo sapiens, SK-MEL-28, 48 h; for CC50: read-out: LC50
# [24] = test system: LOX IMVI; conditions: LOX IMVI (Melanoma), 48 hours, SRB
# [25] = test system: HS578T; conditions: HS578T (Breast Cancer), 48 hours, SRB
# [26] = test system: HCT-116; conditions: HCT-116 (Colon Cancer), 48 hours, SRB
# [27] = test system: OVCAR-5; conditions: OVCAR-5 (Ovarian Cancer), 48 hours, SRB
# [28] = test system: A549/ATCC; conditions: A549/ATCC (Non-Small Cell Lung Cancer), 48 hours, SRB
# [29] = test system: MOLT-4; conditions: MOLT-4 (Leukemia), 48 hours, SRB
# [30] = test system: UACC-257; conditions: UACC-257 (Melanoma), 48 hours, SRB
# [31] = test system: M14; conditions: M14 (Melanoma), 48 hours, SRB
# [32] = test system: RXF 393; conditions: RXF 393 (Renal Cancer), 48 hours, SRB
# [33] = test system: IGROV1; conditions: IGROV1 (Ovarian Cancer), 48 hours, SRB
Compound,GI50 [1],CC50 [1],TGI [2],TGI [3],GI50 [4],CC50 [4],GI50 [5],CC50 [5],TGI [6],GI50 [7],TGI [8],TGI [9],TGI [10],TGI [11],GI50 [12],CC50 [12],TGI [13],TGI [14],TGI [15],TGI [16],further results
Cc1cc(C)cc(-c2ccc3c(c2)[N+]([O-])=C2C3=C[C@@]34NC(=O)C5(CCCN5C3=O)CC4C2(C)C)c1 (some centres unmarked) [Biphenyl Analogue],0.214 µM,2.26 µM,0.757 µM,0.655 µM,0.992 µM,5.18 µM,0.0953 µM,1.7 µM,0.955 µM,0.546 µM,0.322 µM,0.379 µM,0.407 µM,0.731 µM,0.159 µM,79.1 µM,0.349 µM,>100 µM,0.398 µM,0.297 µM,CC50 ([7]; read-out: LC50): > 100 µM; TGI [17]: 0.395 µM; TGI [18]: 0.273 µM; TGI [19]: 0.33 µM; TGI [20]: 0.95 µM; GI50 [21]: 0.124 µM; CC50 [21]: > 100 µM; TGI [22]: 0.44 µM; GI50 [23]: 0.252 µM; CC50 [23]: 3.77 µM; TGI [24]: 0.273 µM; TGI [25]: 18.9 µM; TGI [26]: 0.377 µM; TGI [27]: 1.7 µM; TGI [28]: 0.834 µM; TGI [29]: 0.604 µM; TGI [30]: 1.36 µM; TGI [31]: 0.556 µM
[2H]On1c2c(c3ccc4c(c31)C=CC(C)(C)O4)C(OC([2H])([2H])[2H])[C@@]13NC(=O)C4(CCCN4C1=O)CC3C2(C)C (some centres unmarked) [Deuterated Methanol Adduct],1.27 µM,5.03 µM,1.27 µM,1.45 µM,2.61 µM,39.4 µM,0.598 µM,4.69 µM,2.35 µM,0.492 µM,1.77 µM,1.99 µM,1.25 µM,1.84 µM,0.229 µM,8.56 µM,1.54 µM,3.68 µM,2.46 µM,1.8 µM,TGI [32]: 0.625 µM; TGI [17]: 1.81 µM; TGI [18]: 1.37 µM; TGI [19]: 1.38 µM; TGI [20]: 2.31 µM; GI50 [21]: 0.576 µM; CC50 [21]: > 100 µM; TGI [22]: 1.77 µM; GI50 [23]: 0.457 µM; CC50 [23]: 4.37 µM; TGI [24]: 2.14 µM; TGI [25]: 2.17 µM; TGI [26]: 1.97 µM; TGI [27]: 1.91 µM; TGI [28]: 2.99 µM; TGI [33]: 2.04 µM; TGI [29]: 1.38 µM; TGI [30]: 1.89 µM; TGI [31]: 2.5 µM
